# Source: patent US12622898B2, “Methods and compositions for improving bone marrow hematopoietic functions” (SUN YAT-SEN UNIVERSITY, priority 2019, dated 2026)
# Legend:
# Assay type in all cases: in vivo, mouse
# [1] = system: HSPCs (LT-HSC, ST-HSC, MPP and CD150HSC) in the bone marrow; assay: ABC294640 treatment of C57BL/6J mice during homeostasis: HSPC numbers and cell cycle; details: for HSC pool / HSC quiescence (cell cycle analysis of CD150 HSCs): vs vehicle
# From the text: (§1) B6N.129S6-Sphk1tm1Rlp/J (Sphk1Δ/Δ) and B6N.129S6-Sphk2tm1Rlp/J (Sphk2Δ/Δ) mice were obtained from the Jackson Laboratory. To achieve tissue-specific deletion of Sphk2, the Sphk2^flox/flox mice were crossed with Vav-Cre transgenic mice. Sphk2^flox/flox mice was constructed by Cyagen Biosciences Inc. Briefly, linearized targeting vector was electroporated into embryonic stem (ES) cells and positive clones were identified by Southern blotting and injected into C57BL/6 blastocysts followed by chimera production to obtain germline transmission. The Frt-flanked Neo cassette was subsequently removed by mating with Flpe mice. 2-month-old mice or more than 20-month old for aging we used as indicated. 5 FU (Sigma-Aldrich) was injected once or once a week for survival curve as indicated in the tail vein at 150 μg/g body weight. Sphk2 inhibitor ABC294640 (Target Molecule Corp T6750) and PDK inhibitor Sodium dichloroacetate (DCA) (Selleck Chemicals S8615) were intraperitoneal injected at 25 mg/kg. […] Animals were randomly included in the experiments according to genotyping results as a mix of male and female. All animal experiments were performed according to protocols approved by the institutional animal care and use committee.
# (§2) For phenotype analysis and hematopoietic purification, hematopoietic cells were harvested from bone marrow (femur and tibia). For cell surface phenotyping, a lineage cocktail (Lin, phycoerythrin (PE)-Cy5) was used, including anti-CD3 (145-2C11), anti-CD4 (RM4-5), anti-CD8 (53-6.7), anti-Mac-1 (M1/70), anti-Gr1 (RB6-8C5), anti-B220 (RA3-6B2), anti-IgM (11/41) and anti-TER119 (TER-119) (100 ng antibody cocktail per million bone marrow cells, Biolegend). Monoclonal antibodies to SCA1 (D7, Biolegend), c-KIT (2B8, Biolegend), FLK2 (A2F10, Biolegend), CD34 (RAM34, eBioscience), CD48 (HM48-1, Biolegend), CD41 (MWReg30, eBioscience), CD150 (TC15-12F12.2, BioLegend), CD16/32 (93, Biolegend), IL-7R (A7R34, Biolegend) (all used as 50 ng per million bone marrow cells) were also used where indicated.
# (§3) For cell cycle, DNA damage, the cells were fixed, permeabilized and stained by anti-Ki67 (16A8, Biolegend).
# Cell sorting and analysis were performed using an Attune NxT analyzer (Thermo Fisher Scientific) or InFlux Cell Sorter (BD Biosciences). Data analysis was performed using FlowJo software.
# [2] = system: white blood cells and platelets; assay: Recovery of blood cells after 5-fluorouracil or radiation-induced injury
# aged HSPCs = assay: ABC294640 treatment of aged mice to attenuate HSC aging
# From the text: as §1, §2
# For lineage analysis of peripheral blood, monoclonal antibodies to CD45.1 (A20, eBioscience), CD45.2 (104, Biolegend), CD3, B220, Mac-1 and Gr1 were used.
# as §3
# The cells were further incubated with 0.1 ug/uL DAPI (1306, Thermo Scientific) for 30 min at room temperature. For apoptosis and ROS analysis, the cells were stained by AnnexinV or DCFDA (D6883, Sigma-Aldrich).
# Bone marrow cells were diluted to the indicated concentration in PBS and were seeded into methylcellulose medium M3434 (StemCell Technologies) for CFU-GM, CFU-GEMM, and BFU-E colony formation assays according to the manufacturer's
# [3] = system: human HSCs (reconstitution in NSG mice); assay: Transplantation of ABC294640 treated human cord blood HSCs into NSG mice
# Experimental: Or, in example 14, for lineage analysis of peripheral blood, monoclonal antibodies to anti-hCD45 (HI-30, eBioscience), anti-mCD45 (30-F11, Biolegend), anti-hCD33 (human myeloid cells) (WM53, eBioscience), anti-hCD19 (human B cells) (HIB19, eBioscience), anti-hCD3 (human T cells) (UCHT1, eBioscience) were used. Every 4 weeks after transplantation, peripheral blood was collected from the submandibular vein. Hematopoietic repopulation was measured from donor-derived blood cells (CD45.2) or human-derived blood cells (human CD45). Human cord blood cells (2×10^5) were cultured in 96-round-well plate with Stem Span media (9650, Stem Cell Technologies) supplemented with SCF (10 ng per ml), TPO (20 ng per ml) for two weeks. The culture media was supplemented with vehicle or ABC294640 (1 μM, Target Molecule Corp […]). After culture for two weeks, the culture product was transplanted into irradiated (2Gy) 6-12 weeks old NSG mice via the tail. No mice were excluded unless they died during the 16-week-observations. All animal experiments were performed according to protocols approved by the institutional animal care and use committee.
# [4] = system: donor derived HSPCs, white blood cells and platelets; assay: ABC294640 treatment of recipients after bone marrow transplantation: hematopoietic reconstitution; details: vs vehicle
# From the text: as §1
# 2.0×10^5 CD45.2 bone marrow cells and 2.0×10^5 CD45.1 rescue bone marrow cells were transplanted into lethally irradiated CD45.1 recipients. Adult recipient mice (CD45.1) were irradiated with an Orthovoltage X-ray source delivering approximately in two equal doses of 4.5 Gy at least 3 hours apart. For secondary or tertiary transplantation, bone marrow cells from each recipient were injected into one or two irradiated new recipient mouse (1×10^6 per recipient, depending on the number of recipients) during each round of transplantation.
# 1×10^6 bone marrow cells were transplanted into lethally irradiated recipients, and the recipients were subjected to ABC294640 treatment or vehicle control (FIG. 67).
# [5] = ABC294640 25 mg/kg intraperitoneal vs vehicle, bone marrow
# [6] = after stimulation of the chemotherapeutic drug 5-fluorouracil
# [7] = after the stimulation of radiation
# [8] = 18-month old mice, treatment for 10 weeks, vs vehicle
# [9] = 16 weeks after transplantation in NSG mice
# [10] = one month after transplantation
smiles,measurement,setting,value
"O=C(NCc1ccncc1)C12CC3CC(C1)CC(c1ccc(Cl)cc1)(C3)C2 [ABC294640, 3-(4-chloro-phenyl)-adamantane-1-carboxylic acid (pyridin-4-ylmethyl)-amide]",increase of CD150 HSC number,[1]; [5],1.7 fold
same,increase of LT-HSC number,[1]; [5],2.1 fold
same,HSC pool,[1],expanded HSPC pool
same,HSC quiescence (cell cycle analysis of CD150 HSCs),[1],increased quiescence
same,HSC pool,[1]; listed as ABC294460,expands HSC pool
same,HSC quiescence (cell cycle analysis of CD150 HSCs),[1]; listed as ABC294460,promotes HSC quiescence
same,recovery of platelets,[2]; [6],significantly accelerated
same,recovery of white blood cells,[2]; [6],significantly accelerated
same,recovery of platelets,[2]; [7],significantly accelerated
same,recovery of white blood cells,[2]; [7],significantly accelerated
same,CD150 HSC quiescence,aged HSPCs; [8],preserved
same,HSPC pool,aged HSPCs; [8],significantly expanded
same,increase of CD41- HSC population,aged HSPCs; [8],2.2 fold
same,increase of CD150low HSC population,aged HSPCs; [8],3.6 fold
same,reduction of DNA damage in CD150 HSPCs,aged HSPCs; [8],43.7%
same,reduction of ROS level in CD150 HSPCs,aged HSPCs; [8],63%
same,lymphopoiesis in peripheral blood,"aged HSPCs; aged mice, vs vehicle",markedly increased lymphopoiesis
same,myeloid skewing in peripheral blood,"aged HSPCs; aged mice, vs vehicle",suppressed myeloid skewing
same,colony-forming progenitor frequency in bone marrow cells,"aged HSPCs; aged mice, vs vehicle treated controls",significantly higher
same,lymphopoiesis (both B and T cells in recipients),[3]; [9],improved lymphopoiesis
same,multilineage potential,[3]; [9],with multilineage potential
same,myeloid skewing,[3]; [9],reduction in myeloid skewing
same,increase of reconstitution (human-derived blood cells),"[3]; 16 weeks post transplantation in NSG mice, vs vehicle cultured cells",1.76 fold
same,increase of platelets in PB,[4]; 28 days after transplantation,2.6 fold
same,increase of white blood cells in PB,[4]; 28 days after transplantation,1.9 fold
same,increase of donor derived CD150 HSC,[4]; [10],2.2 fold
same,increase of donor derived LT-HSC,[4]; [10],2.2 fold
same,increase of donor derived ST-HSC,[4]; [10],1.6 fold
